Results taken from BindingDB's records for doi:10.1016/0024-3205(94)00413-m (Sanofi Recherche, 1995).
Where “and” joins values, the source holds several entries; their conditions need not be identical. Equal entries are not always repeated.

Experiments:
[1] = target: Substance-P receptor (Rattus norvegicus, UniProt P14600)
[2] = target: T1, Substance-K receptor (Cavia porcellus, UniProt Q64077)
T1 sequence (Q64077 whole entry): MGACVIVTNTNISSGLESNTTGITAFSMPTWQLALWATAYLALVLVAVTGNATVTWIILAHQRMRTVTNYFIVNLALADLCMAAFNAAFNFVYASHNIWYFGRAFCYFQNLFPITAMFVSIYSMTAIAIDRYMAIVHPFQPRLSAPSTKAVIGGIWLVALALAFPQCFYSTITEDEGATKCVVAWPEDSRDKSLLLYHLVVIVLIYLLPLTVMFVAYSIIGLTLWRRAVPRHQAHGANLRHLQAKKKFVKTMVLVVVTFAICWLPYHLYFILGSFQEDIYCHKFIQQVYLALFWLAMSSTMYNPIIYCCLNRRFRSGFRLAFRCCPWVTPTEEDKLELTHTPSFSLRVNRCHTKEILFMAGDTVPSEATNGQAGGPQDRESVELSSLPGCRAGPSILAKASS

[3] = target: T2, Substance-K receptor (Mesocricetus auratus, UniProt P51144)
T2 sequence (P51144 whole entry): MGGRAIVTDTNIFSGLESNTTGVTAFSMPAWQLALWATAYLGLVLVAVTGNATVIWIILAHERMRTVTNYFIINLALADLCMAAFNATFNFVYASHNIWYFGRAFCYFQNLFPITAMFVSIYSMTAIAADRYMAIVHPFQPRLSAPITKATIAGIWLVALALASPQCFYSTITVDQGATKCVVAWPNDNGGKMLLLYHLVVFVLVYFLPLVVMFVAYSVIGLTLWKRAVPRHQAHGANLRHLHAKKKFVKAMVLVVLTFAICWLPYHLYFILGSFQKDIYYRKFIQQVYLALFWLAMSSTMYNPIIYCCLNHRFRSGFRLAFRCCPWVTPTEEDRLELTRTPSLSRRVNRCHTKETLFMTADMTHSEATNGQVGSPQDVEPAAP

[4] = target: T3, Substance-K receptor (Rattus norvegicus, UniProt P16610)
T3 sequence (P16610 whole entry): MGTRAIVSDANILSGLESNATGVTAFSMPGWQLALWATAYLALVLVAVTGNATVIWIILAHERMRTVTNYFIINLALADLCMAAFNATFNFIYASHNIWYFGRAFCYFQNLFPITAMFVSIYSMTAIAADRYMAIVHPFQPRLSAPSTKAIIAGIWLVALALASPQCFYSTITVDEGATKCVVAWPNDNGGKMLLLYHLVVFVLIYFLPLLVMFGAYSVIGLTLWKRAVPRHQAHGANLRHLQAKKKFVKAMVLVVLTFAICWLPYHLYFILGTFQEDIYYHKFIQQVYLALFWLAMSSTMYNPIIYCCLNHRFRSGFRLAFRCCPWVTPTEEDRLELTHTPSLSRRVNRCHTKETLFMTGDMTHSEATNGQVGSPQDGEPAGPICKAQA

Chain of Substance-P receptor (P14600 whole entry): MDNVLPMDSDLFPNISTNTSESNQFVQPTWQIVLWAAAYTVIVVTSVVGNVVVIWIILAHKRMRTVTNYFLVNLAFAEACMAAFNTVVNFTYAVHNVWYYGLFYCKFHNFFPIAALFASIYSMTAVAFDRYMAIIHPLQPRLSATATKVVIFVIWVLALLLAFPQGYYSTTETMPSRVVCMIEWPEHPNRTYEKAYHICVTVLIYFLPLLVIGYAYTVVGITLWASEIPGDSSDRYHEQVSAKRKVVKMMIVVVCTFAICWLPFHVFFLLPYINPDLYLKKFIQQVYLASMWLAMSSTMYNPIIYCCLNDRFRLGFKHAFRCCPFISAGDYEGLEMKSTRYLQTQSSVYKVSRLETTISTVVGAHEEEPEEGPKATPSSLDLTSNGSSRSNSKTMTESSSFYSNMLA

Ki [1]: 2000 nM | Ki [2]: 73 nM and 350 nM | Ki [3]: 2000 nM | Ki [4]: 100 nM and 248 nM
Structure (SMILES): CC(=O)N(C)C1(c2ccccc2)CCN(CCCC2(c3ccc(Cl)c(Cl)c3)CCCN(C(=O)c3ccccc3)C2)CC1 (centres undefined) [SR 142806]
